Results published in US20050130232A1, “Methods of screening for compounds that modulate hormone receptor activity” (Allergan, Inc., priority 2001, published 2005).

Tests used:
[1] = tested on: protein kinase A activity associated with RXRα (Homo sapiens); experiment: PKA activity in S293 cells overexpressing the catalytic subunit of PKA; type: cell-based
Excerpt: Sample 1: No ligand; immunoprecipitation with beads only. […] Sample 3: No ligand; immunoprecipitation with anti-FLAG antibody. […] Sample 5: No ligand; immunoprecipitation with beads only. […] Sample 7: No ligand; immunoprecipitation with anti-PKA antibody.
S293 cells (HEK293 cells stably overexpressing RXRα) were transfected with the pFC-PKA expression vector encoding the catalytic subunit of protein kinase A and with Flag-tagged PH-RXRα essentially as described above. This commercially available expression vector expresses the catalytic subunit of murine protein kinase A under control of the CMV promoter (Stratagene; San Diego, Calif.).

[2] = tested on: MAP kinase (MAPK or ERK1/2); experiment: MAP kinase phosphorylation in cells treated with RXR agonist (anti-phospho-MAPK immunoblot); type: cell-based
Experimental: Cells were lysed directly with 1×SDS sample buffer and the cell lysates were separated by SDS-PAGE and immunoblotted with anti-phospho-MAPK. […] Differentiated 3T3 adipocytes were starved, stimulated, and manipulated as described above. […] Detection of MAP kinase phosphorylation was performed as described above with anti-phospho-MAPK from Promega.
MAP kinase (MAPK or ERK1/2) is activated by phosphorylation on Thr and Tyr residues of a TEY motif by the dual-specific MAP kinase kinase (MEK). […] As further shown in FIG. 3C, the response was dose-dependent (0.01-100 nM), with maximal stimulation at 0.1 nM.

[3] = target: T1, RXRα phosphorylation by protein kinase A (Homo sapiens, UniProt P19793); experiment: Phosphorylation of immunoprecipitated RXRα by purified PKA; type: biochemical; conditions: cells incubated with 10^-7 M ligand
T1 construct: host or cells: HEK293
T1 sequence (P19793 1-462): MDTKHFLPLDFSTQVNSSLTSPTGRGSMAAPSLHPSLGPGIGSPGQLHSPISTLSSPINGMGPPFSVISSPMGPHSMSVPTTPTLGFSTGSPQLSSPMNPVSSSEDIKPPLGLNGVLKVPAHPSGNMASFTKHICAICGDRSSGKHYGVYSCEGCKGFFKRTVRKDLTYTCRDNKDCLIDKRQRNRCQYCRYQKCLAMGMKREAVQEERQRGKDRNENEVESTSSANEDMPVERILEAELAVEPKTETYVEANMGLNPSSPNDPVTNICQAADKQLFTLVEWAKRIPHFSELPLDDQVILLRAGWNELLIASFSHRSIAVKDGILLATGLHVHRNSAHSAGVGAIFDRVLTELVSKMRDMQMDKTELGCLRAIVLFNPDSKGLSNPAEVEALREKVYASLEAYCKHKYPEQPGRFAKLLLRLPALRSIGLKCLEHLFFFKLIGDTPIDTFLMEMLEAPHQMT
Experimental: Left panel: Cells were immunoprecipitated with anti-FLAG antibody, and the immunoprecipitates analyzed by SDS-PAGE and blotting with anti-PKA antibody. Right panel: Cells were immunoprecipitated with anti-PKA antibody, and the immunoprecipitates analyzed by SDS-PAGE and blotting with anti-FLAG antibody. B. Phosphorylation of RXRα by PKA. […] PKA I and PKC I indicate inhibitors of PKA and PKC, respectively.
RXRα-containing immunoprecipitates prepared with anti-Flag antibody were incubated with purified catalytically active PKA (Upstate Biotechnology) and […]; in addition, protein kinase A inhibitor or protein kinase C inhibitor was added to some reactions as indicated. The kinase reaction products were analyzed by SDS-PAGE.

[4] = target: association between RXRα and PKA (Homo sapiens, UniProt P19793); experiment: Co-immunoprecipitation of RXRα and catalytic subunit of PKA; type: cell-based; conditions: cells overexpressing PKA catalytic subunit, 10^-7 M
Experimental: Left panel: Cells were immunoprecipitated with anti-FLAG antibody, and the immunoprecipitates analyzed by SDS-PAGE and blotting with anti-PKA antibody. Right panel: Cells were immunoprecipitated with anti-PKA antibody, and the immunoprecipitates analyzed by SDS-PAGE and blotting with anti-FLAG antibody. […] PKA I and PKC I indicate inhibitors of PKA and PKC, respectively.
Immunoprecipitations with anti-Flag antibody were performed as described above. Immunoprecipitations with anti-PKA antibody (Transduction Laboratories; Lexington, Kentucky) were performed according to manufacturer's protocol. Western blotting with anti-PKA antibody and anti-Flag antibody also were performed according to manufacturer's protocol.

[5] = target: protein kinase A activity associated with endogenous RXRα (Mus musculus, UniProt P28700); conditions: 3T3-L1 adipocytes, 10^-7 M, vs vehicle-treated cells
Experimental: Kinase activity was determined in the immunoprecipitate using kemptide (LRRASLG; SEQ ID NO: 59) as a substrate. Samples 1,3: 0.1% DMSO (10 minutes).
Kinase activity in the immunoprecipitates was determined as described above using γ-ATP and synthetic peptide SEQ ID NO: 59.

Sequence of protein kinase A activity associated with endogenous RXRα (P28700 whole entry): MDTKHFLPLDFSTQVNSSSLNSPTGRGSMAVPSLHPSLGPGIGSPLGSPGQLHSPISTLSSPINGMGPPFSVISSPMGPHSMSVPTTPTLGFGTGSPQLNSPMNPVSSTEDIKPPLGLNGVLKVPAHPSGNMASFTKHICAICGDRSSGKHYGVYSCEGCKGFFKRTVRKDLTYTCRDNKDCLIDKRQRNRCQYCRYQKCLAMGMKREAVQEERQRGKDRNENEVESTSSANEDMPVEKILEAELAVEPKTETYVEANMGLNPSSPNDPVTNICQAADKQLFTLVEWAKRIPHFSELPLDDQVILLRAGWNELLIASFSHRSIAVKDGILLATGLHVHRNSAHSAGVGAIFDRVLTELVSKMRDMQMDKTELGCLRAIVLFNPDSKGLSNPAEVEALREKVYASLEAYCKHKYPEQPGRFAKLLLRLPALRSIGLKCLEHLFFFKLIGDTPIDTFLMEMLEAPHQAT

CC(/C=C/[C@@H]1C[C@]1(C)c1ccc2c(c1)C(C)(C)CCC2(C)C)=C\C(=O)O [AGN194204]
protein kinase A activity in immunoprecipitates ([1]; immunoprecipitation with anti-Flag antibody): dramatic increase
protein kinase A activity in immunoprecipitates ([1]; immunoprecipitation with anti-PKA antibody): only a marginal ligand-dependent increase
duration of increased MAP kinase phosphorylation [2]: about 20 minutes
phosphorylation of MAP kinase ([2]; 3T3-L1 fibroblasts): increased phosphorylation of MAP kinase
concentration of maximal stimulation of MAP kinase phosphorylation ([2]; 3T3-L1 fibroblasts, 5 minutes): 0.1 nM
dose-dependent range of MAP kinase response ([2]; 3T3-L1 fibroblasts, 5 minutes): 10 to 100000 pM
time to increased MAP kinase phosphorylation ([2]; after treatment): ≤ 5 min
phosphorylation of MAP kinase ([2]; differentiated 3T3 adipocytes): increased phosphorylation of MAP kinase
extent of RXRα phosphorylation by purified PKA [3]: increased
amount of protein kinase A associated with RXRα [4]: did not increase the amount of protein kinase A associated with receptor
PKA activity associated with endogenous RXRα [5]: increased about two-fold
